According to paper PMC12566624, “A Second Opportunity for the Peptide-Based Analogues with γ-Lactam at the P1 Position: Human Cathepsin S Inhibition” (Pharmaceuticals, 2025):

Target: T1, human cathepsin S (hCatS) (Homo sapiens, UniProt P25774)
T1 construct: gene CTSS
Test: fluorogenic enzyme inhibition assay, Cbz-Val-Val-Arg-AMC substrate; Ki from IC50
Type: biochemical

T1 sequence (P25774 115-331): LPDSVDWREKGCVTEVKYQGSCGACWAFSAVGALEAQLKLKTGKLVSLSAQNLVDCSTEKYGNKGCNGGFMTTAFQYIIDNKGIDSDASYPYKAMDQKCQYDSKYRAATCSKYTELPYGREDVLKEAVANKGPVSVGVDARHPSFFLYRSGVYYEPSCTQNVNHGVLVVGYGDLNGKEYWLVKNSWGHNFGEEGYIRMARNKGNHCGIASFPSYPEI

Compound | Ki
CCCC[C@H](NC(=O)OCc1ccccc1)C(=O)N[C@H](/C=C/C(C)=O)C[C@@H]1CCNC1=O [SPR38] | 58.8 ± 3.6 nM
CC(=O)/C=C/[C@H](C[C@@H]1CCNC1=O)NC(=O)[C@H](CC1CCCCC1)NC(=O)OCc1ccccc1 [SPR41] | 10.7 ± 1.1 nM
CC(=O)/C=C/[C@H](C[C@@H]1CCNC1=O)NC(=O)[C@H](CC1CC1)NC(=O)OCc1ccccc1 [SPR39] | 45.1 ± 3.8 nM
